Experimental data: PubChem BioAssay AID1963826 (Molecular Pharmacology Branch, DTP, NCI, 2024)

System: 926638-142-R-J1-PDC complex spheroid viability
Assay: Anticancer human tumor 926638-142-R-J1-PDC patient-derived endometrial carcinoma cell line growth inhibition [POLQ]
Details: for IC50: curve of first compound; for viability, T/C: stronger effect = lower value
Outline: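 Complex spheroid viability model combining PDC tumour cells with endothelial (HUVEC) and MSC stromal cells. Novobiocin, ART-558 or RP6685 were tested singly and in combination with standard and investigational anticancer drugs. Each was titrated in half-log steps from near clinical Cmax, or from 10 microM where Cmax was unknown.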

[1] = second compound 0.0316 µM, first compound 0.00316 µM
[2] = second compound 0.0316 µM, first compound 0.01 µM
[3] = second compound 0.0316 µM, first compound 0.0316 µM
[4] = second compound 0.0316 µM, first compound 0.1 µM
[5] = second compound 0.1 µM, first compound 0.00316 µM
[6] = second compound 0.1 µM, first compound 0.01 µM
[7] = second compound 0.1 µM, first compound 0.0316 µM
[8] = second compound 0.1 µM, first compound 0.1 µM
[9] = second compound 0.316 µM, first compound 0.00316 µM
[10] = second compound 0.316 µM, first compound 0.01 µM
[11] = second compound 0.316 µM, first compound 0.0316 µM
[12] = second compound 0.316 µM, first compound 0.1 µM
[13] = second compound 1 µM, first compound 0.00316 µM
[14] = second compound 1 µM, first compound 0.01 µM
[15] = second compound 1 µM, first compound 0.0316 µM
[16] = second compound 1 µM, first compound 0.1 µM
[17] = second compound 3.16 µM, first compound 0.00316 µM
[18] = second compound 3.16 µM, first compound 0.01 µM
[19] = second compound 3.16 µM, first compound 0.0316 µM
[20] = second compound 3.16 µM, first compound 0.1 µM
[21] = second compound 10 µM, first compound 0.00316 µM
[22] = second compound 10 µM, first compound 0.01 µM
[23] = second compound 10 µM, first compound 0.0316 µM
[24] = second compound 10 µM, first compound 0.1 µM
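Note: spheroids exposed to drugs for one week before readout.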
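Throughout, for viability, T/C: percent viability relative to DMSO vehicle control wells set as 100%.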

`CC[C@@]1(O)C(=O)OCc2c1cc1n(c2=O)Cc2cc3c(CN(C)C)c(O)ccc3nc2-1` + COC1C(OC(N)=O)C(O)C(Oc2ccc3c(O)c(NC(=O)c4ccc(O)c(CC=C(C)C)c4)c(=O)oc3c2C)OC1(C)C was tested, and the IC50 (second compound 0.0316 µM) was over 100 nM, the IC50 (second compound 0.1 µM) was 86.5 nM and the IC50 (second compound 0.316 µM) was over 100 nM. The IC50 (second compound 1 µM) was 66.1 nM, the IC50 (second compound 3.16 µM) was 98.1 nM and the IC50 (second compound 10 µM) was 79.5 nM. It also gave a viability, T/C (second compound 0.0316 µM, first compound 0.000316 µM) of 102%, a viability, T/C (second compound 0.0316 µM, first compound 0.001 µM) of 92.5% and a viability, T/C [1] of 85.7%. For the same compound, the viability, T/C [2] was 72.3%, the viability, T/C [3] was 70.9% and the viability, T/C [4] was 47.7%. For the same compound, the viability, T/C (second compound 0.1 µM, first compound 0.000316 µM) was 80.4%, the viability, T/C (second compound 0.1 µM, first compound 0.001 µM) was 105% and the viability, T/C [5] was 80.4%. It also gave a viability, T/C [6] of 75.7%, a viability, T/C [7] of 72.1% and a viability, T/C [8] of 46.6%. The viability, T/C (second compound 0.316 µM, first compound 0.000316 µM) was 107%, the viability, T/C (second compound 0.316 µM, first compound 0.001 µM) was 106% and the viability, T/C [9] was 77.9%. It also gave a viability, T/C [10] of 65.9%, a viability, T/C [11] of 76.2% and a viability, T/C [12] of 54.6%. For the same compound, the viability, T/C (second compound 1 µM, first compound 0.000316 µM) was 83.4%, the viability, T/C (second compound 1 µM, first compound 0.001 µM) was 70.5% and the viability, T/C [13] was 75.8%. For the same compound, the viability, T/C [14] was 73.2%, the viability, T/C [15] was 60.8% and the viability, T/C [16] was 43.5%. It also gave a viability, T/C (second compound 3.16 µM, first compound 0.000316 µM) of 94.2%, a viability, T/C (second compound 3.16 µM, first compound 0.001 µM) of 93.7% and a viability, T/C [17] of 82.5%. The viability, T/C [18] was 83.5%, the viability, T/C [19] was 72.9% and the viability, T/C [20] was 48.6%. The viability, T/C (second compound 10 µM, first compound 0.000316 µM) was 84.8%, the viability, T/C (second compound 10 µM, first compound 0.001 µM) was 88.8% and the viability, T/C [21] was 81.1%. For the same compound, the viability, T/C [22] was 71.1%, the viability, T/C [23] was 73.8% and the viability, T/C [24] was 44.2%.
`CCc1c2c(nc3ccc(O)cc13)-c1cc3c(c(=O)n1C2)COC(=O)[C@]3(O)CC` + COC1C(OC(N)=O)C(O)C(Oc2ccc3c(O)c(NC(=O)c4ccc(O)c(CC=C(C)C)c4)c(=O)oc3c2C)OC1(C)C was tested, and the IC50 (second compound 0.0316 µM) was 8.81 nM, the IC50 (second compound 0.1 µM) was 12.6 nM and the IC50 (second compound 0.316 µM) was 11.9 nM. For the same compound, the IC50 (second compound 1 µM) was 10.7 nM, the IC50 (second compound 3.16 µM) was 12.1 nM and the IC50 (second compound 10 µM) was 13.6 nM. It also gave a viability, T/C [1] of 79.4%, a viability, T/C [2] of 42% and a viability, T/C [3] of 30.3%. For the same compound, the viability, T/C [4] was 19.2%, the viability, T/C (second compound 0.0316 µM, first compound 0.316 µM) was 7.89% and the viability, T/C (second compound 0.0316 µM, first compound 1 µM) was 4.74%. For the same compound, the viability, T/C [5] was 65.7%, the viability, T/C [6] was 54.1% and the viability, T/C [7] was 35.9%. For the same compound, the viability, T/C [8] was 17.1%, the viability, T/C (second compound 0.1 µM, first compound 0.316 µM) was 14.9% and the viability, T/C (second compound 0.1 µM, first compound 1 µM) was 4.58%. It also gave a viability, T/C [9] of 68.6%, a viability, T/C [10] of 54% and a viability, T/C [11] of 32%. For the same compound, the viability, T/C [12] was 19.1%, the viability, T/C (second compound 0.316 µM, first compound 0.316 µM) was 9.36% and the viability, T/C (second compound 0.316 µM, first compound 1 µM) was 4.49%. For the same compound, the viability, T/C [13] was 61.8%, the viability, T/C [14] was 53.5% and the viability, T/C [15] was 30.4%. The viability, T/C [16] was 20.2%, the viability, T/C (second compound 1 µM, first compound 0.316 µM) was 8.68% and the viability, T/C (second compound 1 µM, first compound 1 µM) was 5.03%. It also gave a viability, T/C [17] of 57.8%, a viability, T/C [18] of 49.7% and a viability, T/C [19] of 40.5%. For the same compound, the viability, T/C [20] was 17.7%, the viability, T/C (second compound 3.16 µM, first compound 0.316 µM) was 8.91% and the viability, T/C (second compound 3.16 µM, first compound 1 µM) was 5.57%. For the same compound, the viability, T/C [21] was 59.1%, the viability, T/C [22] was 57.4% and the viability, T/C [23] was 35.7%. It also gave a viability, T/C [24] of 21.5%, a viability, T/C (second compound 10 µM, first compound 0.316 µM) of 9.84% and a viability, T/C (second compound 10 µM, first compound 1 µM) of 6.1%.
